Broadly, the solubility is how much of the substance goes into solution per volume.

In brackets after ≈: the same amount, converted by molar mass.

The source of these data is patent US10065965B2, “Imidazo[1,2-B][1,2,4]triazine derivatives as antiparasitic agents” (GlaxoSmithKline Intellectual Property Development Limited, priority 2015, dated 2018).

One data set concerns Leishmania donovani. Briefly: Assay 5 Leishmania donovani intracellular assay (eGFP amastigotes in THP-1 cells). It is filed as cell-based. Conditions: 96 h, read-out: pEC50 value against Leishmania donovani (converted). As for the experimental part: Compounds were dispensed into black 384-well assay plates (Greiner) by acoustic dispensing (LabCyte ECHO). For potency determinations, eleven-point, one in three dilution curves were generated, with a top concentration of 50 μM. THP-1 human monocytes cells were dispensed in T225 tissue culture flasks and differentiated using 30 nM of PMA, after 24 hours they were infected overnight using Leishmania donovani expressing Green Fluorescent Protein (eGFP) amastigotes in the same T225 tissue culture flasks at a multiplicity of infection of 10. Next, any remaining free amastigotes were washed away with PBS and the infected THP-1 cells were harvested by trypsinisation. The infected cells were then plated into 384-well plates containing the compounds to be tested, at 3000 cells per well in RPMI media with 2% FBS and 25 mM Sodium bicarbonate. After 96 h incubation at 37° C. in presence of 5% CO2, the plates were fixed with 4% formaldehyde for 30 minutes, washed with PBS and stained with 0.1 mg/mL of DAPI for 30 minutes and washed again with PBS. The plates were imaged on a Perkin Elmer Opera high-content imaging system using a 20× air objective with two expositions, one for DAPI stain and other for eGFP. Images were analysed using the Acapella building blocks system (Perkin Elmer). […]

Data set [1] in a line: Assay 5 Leishmania donovani intracellular assay, cytotoxicity against THP-1 cells. It is filed as cell-based. The settings on record: human, total number of THP-1 cells, minimum threshold 4.3, read-out: cytotoxicity against THP-1 cells, pEC50 value (converted). In a few lines:
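PMA-differentiated THP-1 cells infected overnight with eGFP L. donovani amastigotes (MOI 10), then exposed 96 h at 37 °C to 11-point 1:3 dilutions from 50 μM. After fixation and DAPI staining, high-content imaging scored parasites per cell, % infected cells and total THP-1 count.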

Data set [2] is described as follows: Assay 4 solubility assay, ChemiLuminescent Nitrogen Detection (CLND). The class given is physicochemical. The settings on record: phosphate buffered saline, pH 7.4, aqueous buffer, kinetic from dmso stock, pH 7.4 PBS, from 10 mM DMSO stock, 1 h at room temperature. In a few lines:
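Kinetic solubility: 10 mM DMSO stock diluted 5 µl into 100 µl pH 7.4 PBS, incubated 1 h at room temperature, then filtered. Filtrate quantified by HPLC with chemiluminescent nitrogen detection against ondansetron and caffeine standards; solubility in µM by linear-regression calibration.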

Data set [3] is described as follows: Assay 1 intramacrophage Leishmania donovani assay, THP-1 cell count (cytotoxicity readout). The class given is cell-based. The settings on record: human, minimum threshold 4.3, read-out: cytotoxicity against THP-1 cells, pEC50 value (converted). In a few lines: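 THP-1 cells were differentiated with 20 nM PMA for 75 h, infected with amastigotes at MOI 5 for 16 h, then exposed to compound for 96 h in a ten-point 1:3 series from a 50 μM top concentration. Cells were fixed, DAPI/CellMask-stained and imaged by high-content microscopy. pEC50 was derived from amastigotes per cell and from THP-1 count.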

Turning to `O=C(Nc1ccc(F)c(-c2cn3nc(N4CCOCC4)cnc3n2)c1)N1CCCC1` [Example 1, N-(4-fluoro-3-(2-morpholinoimidazo[1,2-b][1,2,4]triazin-6-yl)phenyl)pyrrolidine-1-carboxamide], the EC50 in the data set on Leishmania donovani is 0.158 µM. Also, the EC50 at 96 h in data set [1] and in data set [3] was greater than 50.1 µM throughout. This molecule had a solubility at 1 h in data set [2] of 100 to 416 µM (≈ 41.1 to 171 µg/mL).
